Data published in patent US8927600B2, “Compound for use in the treatment of peripheral neuropathies” (Biocodex, priority 2009, dated 2015).
“Also recorded” adds a separate entry of the source.

Columns and labels:
[1] = system: sensitive neurons extracted from rat embryo dorsal spinal ganglions; assay: number of cell bodies (anti-MAP2 labelling) in sensitive neuron co-culture with or without cisplatin; assay type: cell-based; details: 24 hours, FIG. 2
Method: (§1) To be more precise, they studied the survival of sensitive neurons extracted from rat embryo dorsal spinal ganglions cultured in the presence of a cytotoxic agent, cisplatin, co-applied with stiripentol.
(§2) The co-culturing, for 5 days, of sensitive neurons (˜5-10% of the cultivated cell population) associated with Schwann cells and fibroblasts (˜95-90% of the cultivated cell population) is carried out in an appropriate medium as described in Hall et al. (1997) J. Neurosci. 17:2775-2784. […]
(§3) The density of the neuritic networks (axons and dendrites) labelled by an anti-β-tubulin antibody (ref T8660, Sigma, France) is then determined by measuring their length, together with the number of cell bodies marked by means of an anti-MAP2 antibody (ref M4403, Sigma, France) as indicated by Gill & Windebank (1998) J. Clin. Invest. […] Also determined is the amount of lactate dehydrogenase (LDH) (Kit de detection (detection kit), ref 1 644 793, Roche) released in the extracellular medium, the amount of which is proportional to the number of cells which are damaged or dead owing to the cisplatin-induced cell lysis, as indicated by Koh & Choi (1987) J Neurosci Methods 20:83-90.

[2] = system: sensitive neurons extracted from rat embryo dorsal spinal ganglions; assay: density of neuritic networks (total neurite length, anti-β-tubulin labelling) in sensitive neuron co-culture with or without cisplatin; assay type: cell-based; details: 24 hours, FIG. 1
Method: as §1, §2, §3

[3] = system: sensitive neurons extracted from rat embryo dorsal spinal ganglions; assay: lactate dehydrogenase (LDH) released in the extracellular medium of the co-culture with or without cisplatin; assay type: cell-based; details: 24 hours, FIG. 3
Method: as §1, §2, §3

[4] = system: uptake of gamma-aminobutyric acid (GABA); details: cited from earlier work
CYP1A2 = CYP1A2 (Homo sapiens, UniProt P05177); details: Tran et al. (1997); cited from earlier work
CYP1A2, sequence (P05177 whole entry): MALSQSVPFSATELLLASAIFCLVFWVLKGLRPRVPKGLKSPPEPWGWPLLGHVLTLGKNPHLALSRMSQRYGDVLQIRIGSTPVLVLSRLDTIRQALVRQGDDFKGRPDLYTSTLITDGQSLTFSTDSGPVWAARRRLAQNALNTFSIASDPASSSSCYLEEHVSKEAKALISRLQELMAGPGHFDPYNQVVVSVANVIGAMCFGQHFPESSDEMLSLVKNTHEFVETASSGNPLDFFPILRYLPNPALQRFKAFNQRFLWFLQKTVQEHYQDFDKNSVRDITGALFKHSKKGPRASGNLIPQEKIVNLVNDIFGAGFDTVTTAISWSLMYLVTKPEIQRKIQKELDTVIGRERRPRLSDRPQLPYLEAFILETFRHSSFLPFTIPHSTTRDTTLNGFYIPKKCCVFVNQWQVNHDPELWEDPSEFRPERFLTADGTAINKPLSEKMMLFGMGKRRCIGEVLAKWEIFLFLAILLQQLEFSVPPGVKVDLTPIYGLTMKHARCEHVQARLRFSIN

CYP3A4 = CYP3A4 (Homo sapiens, UniProt P08684); details: Tran et al. (1997); cited from earlier work
CYP3A4, sequence (P08684 whole entry): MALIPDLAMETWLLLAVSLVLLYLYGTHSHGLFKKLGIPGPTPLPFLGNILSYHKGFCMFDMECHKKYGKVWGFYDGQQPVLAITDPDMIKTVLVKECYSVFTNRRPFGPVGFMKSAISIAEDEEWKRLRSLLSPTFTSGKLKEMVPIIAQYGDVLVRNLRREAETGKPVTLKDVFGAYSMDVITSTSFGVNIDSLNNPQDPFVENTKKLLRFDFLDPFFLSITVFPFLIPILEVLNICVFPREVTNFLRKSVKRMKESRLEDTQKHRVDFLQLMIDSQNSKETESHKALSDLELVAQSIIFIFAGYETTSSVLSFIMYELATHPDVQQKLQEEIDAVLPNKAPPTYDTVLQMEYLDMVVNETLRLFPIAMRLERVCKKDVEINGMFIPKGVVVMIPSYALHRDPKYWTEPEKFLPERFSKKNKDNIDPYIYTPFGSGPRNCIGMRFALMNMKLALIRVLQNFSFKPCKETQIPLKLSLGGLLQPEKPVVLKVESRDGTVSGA

[5] = system: sensitive neurons extracted from rat embryo dorsal spinal ganglions; assay: in vitro model of peripheral neuropathy (cisplatin), overall neuroprotective activity; assay type: cell-based; details: stiripentol 1-10 μM versus NGF 5 ng/ml; cisplatin 4.5 μg/ml, 24 hours
Method: as §1, §2, §3

[6] = in the presence of cisplatin 4.5 μg/ml, stiripentol 1, 3, 10 μM, NGF 5 ng/ml

Structure (SMILES)	effect of cisplatin on the cell bodies ([1]; cisplatin 4.5 μg/ml alone)	effect of cisplatin on the density of the neuritic networks ([2]; cisplatin 4.5 μg/ml alone)	effect of cisplatin on cell lysis (LDH release) ([3]; cisplatin 4.5 μg/ml alone)	inhibition of the uptake of gamma-aminobutyric acid (GABA) [4]	number of neuronal cell bodies [1, 6]	inhibition of CYP1A2 (CYP1A2)	inhibition of CYP3A4 (CYP3A4)	density of the neuritic networks (total length of the neurites) [2, 6]	neuroprotective activity compared with NGF [5]	cell release of LDH [3, 6]
N.N.[Cl][Pt][Cl] [cisplatin]	degeneration of the cell bodies	reduction in the density of the neuritic networks	cell lysis	–	–	–	–	–	–	–
CC(C)(C)C(O)/C=C/c1ccc2c(c1)OCO2 (stereo not shown) [stiripentol, 4,4-dimethyl-1-[(3,4-methylenedioxy)-phenyl]-1-penten-3-ol]	–	–	–	inhibits the uptake of gamma-aminobutyric acid (GABA)	reduce the decrease	inhibitor	inhibitor	reduce the decrease in the density of the neuritic networks	neuroprotective effect equivalent to that of NGF; also recorded: neuroprotective activity of the same order as that of NGF	neuroprotective effect
